The text below walks through data of PubChem BioAssay AID540268 (Broad Institute, 2011).

“And” between values parts separate entries of the source, which are not always exact repeats. Equal entries are not always repeated. The source made the active and inactive calls. The rule behind the calls is not given here. Bounds are passed on as bounds.

A short description of one experiment: growth inhibition of yeast carrying parasite Hsp90, dose response, anti-malarial Hsp90 inhibitor project, ATP luminescence, 48 h, cherry-picked samples (AID 540268).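 For activity change, negative = inhibition: 0% = neutral control wells and -100% = positive control wells.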 The settings on record: yeast expressing the parasite Hsp90, ATP luminescence.
In the case of `Oc1c(Br)cc(Br)c(/C=N/n2c(-c3ccccc3)n[nH]c2=S)c1Br`, the AC50 (usually the midpoint of the concentration-response curve, whichever way the signal moves) was 10.4 µM. On to `CC1=NNC(=O)/C1=C\c1cn(-c2ccccc2)nc1-c1cccs1`, for which the AC50 was 4.87 µM.

Take `COc1ccc(NC(=O)/C(Cl)=C(/Cl)S(=O)Cc2ccc(Cl)cc2)cn1` (centres undefined): the AC50 is 0.837 µM.

Regarding `CC(=O)SC(C[N+](=O)[O-])c1cn(C(C)=O)c2ccccc12` (centres undefined), the AC50 is 1.57 µM.

`Cc1cccc(N=Nc2ccc(O)c3ncccc23)c1`: the concentration at half-maximal activity (AC50) was 2.25 µM. Consider `COc1ccc(-c2nc(-c3ccccn3)no2)cc1`, for which the AC50 is 16.2 µM. As for `O=C(C#Cc1ccccc1)c1cccc([N+](=O)[O-])c1`, the AC50 was 0.291 µM. On to `COc1ccc(N(C(=O)c2ccncc2)S(=O)(=O)c2ccccc2)cc1`, for which the AC50 was 1.66 µM. The same measure, in the same setting: then `O=C(C#Cc1ccccc1)c1ccco1`, with 1.95 µM. On to `CCCc1cc(NCc2ccccn2)n2nc(C)c(-c3ccccc3)c2n1`, for which the AC50 was 1.29 µM. As for `OC(Cn1cncn1)(c1ccccc1)c1ccccc1`, the AC50 is 1.57 µM. `O=C(OCC(=O)N1CCN(C(=O)c2ccco2)CC1)c1cc(-c2ccccc2)nc2ccccc12`: the AC50 was 3.6 µM.

Regarding `O=C1CC(N2CCCN(C3CC(=O)N(c4ccc(F)cc4)C3=O)CC2)C(=O)N1c1ccc(F)cc1` (centres undefined), the AC50 is 3.49 µM. Take `Cc1cc2n(n1)C(c1c[nH]c3ccccc13)Nc1ccccc1-2` (centres undefined): the AC50 is 2.67 µM. Still for that read-out and setting: then `O=C(Nc1nc(-c2ccccn2)cs1)c1cc2ccccc2o1`, with 4.24 µM. `Oc1cccc2ccc(/C=C/c3ccccc3Cl)nc12`: the AC50 was 16.3 µM. `O=C(C#Cc1cccc([N+](=O)[O-])c1)c1ccccc1`: the AC50 is 0.36 µM. As to `COc1ccc2oc(=O)c(-c3csc(Nc4cccc(O)c4)n3)cc2c1`, the AC50 was 7.93 µM.

As to `O=C(/C(=C/O)N=Nc1ccccc1)c1ccc(Cl)cc1`, the AC50 is 6.25 µM. With `COc1cc(SC)ccc1C(=O)Nc1nc2ccccc2[nH]1`, the AC50 is 1.96 µM. With `Cc1c(N=Cc2cc(Br)cc(Br)c2O)cccc1C(=O)O`, the AC50 is 3.06 µM. On the same count and under the same terms, in the case of `Oc1c(Br)cc(Br)cc1C=Nc1cccnc1` it was 5.8 µM; in that of `O=C(Nc1nnc(-c2ccc(F)cc2)o1)c1cc(Cl)sc1Cl`, 2.43 µM; in that of `COc1ccccc1C(=O)NNC(=S)NC(=O)c1ccco1`, 2.41 µM. Same read-out and setting: then `CCc1ccc2c(c1)/C(=C/C(=O)c1cccs1)C(=O)N2`, with 4.7 µM; and `O=[N+]([O-])c1cc2no[n+]([O-])c2cc1N1CCCCC1`, with 0.877 µM. Still for that read-out and setting: in the case of `COc1cccc(/C=N/Nc2ccc([N+](=O)[O-])cn2)c1O` it was 4.36 µM; in that of `CCCC1COC(Cn2cncn2)(c2ccc(C)cc2)O1` (centres undefined), 0.628 µM; in that of `CCCCCCCCCCCCCCCC[n+]1ccccc1`, 4.03 µM and 3.43 µM. Consider `Oc1ccc2ccccc2c1N=Nc1ccccn1`, for which the AC50 is 2.66 µM. Turning to `O=C(NNC1=C(C(=O)C(F)(F)F)CCC1)c1ccc(Br)cc1`, the concentration at half-maximal activity (AC50) is 0.759 µM. `CC(C)OC(=O)c1ccc(NCc2cc(O)ccc2O)cc1Cl`: the half-maximal activity concentration (AC50) was 24.1 µM.

Turning to `CC(C)c1c(O)ccc2c1CC[C@H]1C(C)(C)CCC[C@]21C`, the AC50 is 2.86 µM. The same measure, in the same setting: then `COc1cc(N=Nc2ccc3ccccc3c2)ccc1O`, with 8.61 µM.

`O=C(C=Cc1ccccn1)c1ccccc1O`: the AC50 is 3 µM. As for `COc1ccc(NC2CCN(C3CC(=O)N(c4ccc(F)c(Cl)c4)C3=O)CC2)cc1` (centres undefined), the AC50 is 2.61 µM. In the case of `O=C(/C=C/c1cccc([N+](=O)[O-])c1)c1ccc([N+](=O)[O-])o1`, the AC50 is less than 0.195 µM. As for `Cc1ccc(C(=O)C(SC(C)(C)C)n2cncn2)cc1` (centres undefined), the AC50 is 4.25 µM. Same read-out and setting: in the case of `Cc1cccc(Nc2nc(N)c([N+](=O)[O-])c(N3CCCC(C)C3)n2)c1` (centres undefined) it was 2.03 µM.

Regarding `Oc1ccc(N=Nc2nc(-c3ccccc3)c(-c3ccccc3)[nH]2)cc1`, the AC50 is 6.13 µM. With `CCCCCCCCCCOC(=O)Cn1c(COc2ccc(Cl)cc2)[n+](C)c2ccccc21`, the AC50 is 4.25 µM. With `On1ccccc1=S`, the AC50 was less than 0.195 µM. On to `c1ccc(-c2ccc(C(c3ccccc3)n3ccnc3)cc2)cc1` (centres undefined), for which the AC50 was 1.07 µM. Regarding `Clc1ccc(COC(Cn2ccnc2)c2ccc(Cl)cc2Cl)cc1` (centres undefined), the AC50 was less than 0.195 µM. On to `O=[N+]([O-])c1c(Nc2ccccn2)cc(Cl)c2nonc12`, for which the AC50 is 0.803 µM.

Consider `CSc1ccccc1OCc1cc(C(=O)N2CCN(C)C(c3ccccc3)C2)no1` (centres undefined), for which the AC50 was 2.25 µM.

As for `Cc1ccc(S(=O)(=O)Nc2ccc3cc([N+](=O)[O-])ccc3c2[N+](=O)[O-])cc1`, the half-maximal activity concentration (AC50) was 11.9 µM.

On to `Cc1ccc(/C=C/C(=O)c2ccccc(=O)c2O)cc1C`, for which the AC50 was 8.01 µM. On to `CN(C)/C=C/C(=O)/C=C/c1cn(-c2ncc(C(F)(F)F)cc2Cl)c2ccccc12`, for which the AC50 is 4.18 µM.

`O=[N+]([O-])c1ccc(O)c(/C=N/Nc2ccccn2)c1`: the AC50 is 3.31 µM.

For `Cc1cc(/C=C2\SC(=S)NC2=O)c(C)n1-c1ccc(O)cc1`, the AC50 was 4.65 µM. On the same count and under the same terms, in the case of `Cc1ccc(NC(=O)c2ccc(Cl)c(N3C(=O)C=CC3=O)c2)cc1` it was 2.38 µM. `CCOc1ccccc1-c1c2cc(O)c(=O)cc-2oc2cc(O)c(O)cc12`: the AC50 was 4.21 µM. As to `Cc1cccc(N=C2c3cc([N+](=O)[O-])ccc3-c3c2cc([N+](=O)[O-])cc3[N+](=O)[O-])c1`, the AC50 was 9.02 µM. Still for that read-out and setting: in the case of `OC(Cn1cncn1)(c1ccc(F)cc1)c1ccc(Cl)cc1` (centres undefined) it was less than 0.195 µM; in that of `Cc1ccc(C(=O)c2coc3c2C(=O)C(=O)c2ccccc2-3)cc1`, 8.16 µM; in that of `Cc1cccc(Nc2nc(N)c([N+](=O)[O-])c(N3CC(C)CC(C)C3)n2)c1` (centres undefined), 3.22 µM. Turning to `c1cnc2c(c1)ccc1cccnc12`, the AC50 was 6.61 µM.

On to `CC(C)=CCc1c2c(c3occ(-c4ccc(O)c(O)c4)c(=O)c3c1O)C=CC(C)(C)O2`, for which the AC50 was 8.75 µM. In the case of `CC1=CC(=O)C(C(C)C)=C/C1=N/OS(=O)(=O)c1ccccc1`, the half-maximal activity concentration (AC50) was 3.09 µM. Same read-out and setting: in the case of `Oc1cc(Cl)c(Cl)c(Cl)c1Cl` it was 1.7 µM; in that of `O=[N+]([O-])c1ccc(Sc2nc3ccccc3o2)c([N+](=O)[O-])c1`, 3.56 µM; in that of `CCCCCCc1cc2cc(S(=O)(=O)c3ccc(Cl)cc3)c(=O)oc2cc1O`, 0.745 µM. Take `O=C1C=CC(=O)N1c1cccc(-c2ccccc2)c1`: the AC50 is less than 0.195 µM. Take `O=C(/C=C/c1cc(Br)ccc1O)c1ccco1`: the AC50 is 5.35 µM. On the same count and under the same terms, in the case of `Cc1ccc(-c2cc(C(=O)N3N=C(C(F)F)CC3(O)C(F)F)c3ccccc3n2)cc1C` (centres undefined) it was 2.93 µM. Turning to `O=C(CC(n1cncn1)C(Cl)(Cl)Cl)c1ccc([N+](=O)[O-])cc1` (centres undefined), the AC50 was 4.42 µM. On the same count and under the same terms, then `Cc1ccc(NC(=O)c2cc(N3C(=O)C=CC3=O)ccc2N2CCOCC2)cc1`, with 0.605 µM; and `Cc1sc(NC(=O)c2ccco2)c(C(c2cccnc2)N2CCC(C)CC2)c1C` (centres undefined), with 7.74 µM; and `O=C(Nc1ccccc1N1CCOCC1)c1ccc([N+](=O)[O-])s1`, with 8.44 µM. In the case of `Clc1ccc(C(c2ccc(Cl)cc2)n2cc[n+](CC(OCc3ccc(Cl)cc3Cl)c3ccc(Cl)cc3Cl)c2)cc1` (centres undefined), the AC50 was 5.47 µM. In the case of `O=C(/C=C/c1ccc([N+](=O)[O-])cc1)c1ccccc(=O)c1O`, the AC50 was 1.04 µM. On to `CCCC(=O)NC(c1ccccc1Cl)c1ccc2cccnc2c1O` (centres undefined), for which the AC50 was 4.13 µM.

In the case of `CC(NNC(=S)N1CCN(c2ccccn2)CC1)c1nccc2ccccc12` (centres undefined), the AC50 was 2.74 µM. Take `CCN(CCO)C1CC(=O)N(c2ccccc2C)C1=O` (centres undefined): the concentration at half-maximal activity (AC50) was 1.26 µM. For `O=C(O)c1ccc(N/N=C/c2ccc(-c3cccc(Cl)c3)o2)cc1`, the AC50 was 8.69 µM. `CC(=O)NC(c1ccc2ccccc2c1)c1ccc2cccnc2c1O` (centres undefined): the AC50 is 1.75 µM. As to `Cn1c(O)c(C(=Nc2ccc(F)cc2)c2ccccc2Cl)c(=O)n(C)c1=O`, the AC50 is 2.28 µM. Regarding `Oc1ccc(-c2nc3ccc4ccccc4c3c3c2CCC3)cc1O`, the half-maximal activity concentration (AC50) is 8.29 µM. Still for that read-out and setting: then `O=C(Nc1nc(-c2ccccn2)cs1)C1COc2ccccc2O1` (centres undefined), with 8.85 µM. On the same count and under the same terms, then `Cc1ccccc1CS(=O)(=O)c1nnc([C@H](Cc2ccccc2)NC(=O)OC(C)(C)C)o1`, with 17.1 µM. Same read-out and setting: then `COc1cc(C#Cc2c(-c3cncn3C)n(C)c3ccc(-c4ccc(OC)nc4)cc23)cc(OC)c1`, with 4.74 µM. Regarding `O=C(Oc1ccc(Cl)c2cccnc12)c1cccnc1`, the AC50 was 7.85 µM. Take `OCCOCCn1c(C2CCCN2c2nc(-c3ccc(F)cc3)cs2)nc2cc(C(F)(F)F)ccc21` (centres undefined): the half-maximal activity concentration (AC50) is 7.92 µM. On to `O=C(N/N=C/c1c(O)ccc2ccccc12)c1cccc(C(F)(F)F)c1`, for which the AC50 is 2.86 µM. The same measure, in the same setting: then `Cc1ccc2c(c1C)-c1c(ccc(C)c1C)C(=O)C2=O`, with 2.67 µM; and `CC1=CC(C)CC(C)OC(=O)CC(c2ccc(O)cc2)NC(=O)C(Cc2c(Br)[nH]c3ccccc23)N(C)C(=O)C(C)NC(=O)C(C)C1` (centres undefined), with 5.2 µM; and `Cc1cc(-c2n[nH]c(=S)n2/N=C/C(Br)=C/c2ccccc2)n[nH]1`, with 15 µM. The same measure, in the same setting: in the case of `COc1cc(OC)cc(N2C(=O)CC(N3CCC(C(=O)N4CCCCC4)CC3)C2=O)c1` (centres undefined) it was 8.21 µM. For the compound `C/C(=N\Nc1nc2ccccc2s1)c1ccc(Br)s1`, the AC50 is 4.47 µM.

As to `Cc1ccc(C2=NC(C)(C)N=C2SCC(=O)Nc2ccc(Cl)cc2)cc1`, the concentration at half-maximal activity (AC50) was 26.2 µM. Take `O=S(=O)(Nc1nc2ccccc2nc1N1CCN(c2ccccn2)CC1)c1ccc(Cl)cc1`: the half-maximal activity concentration (AC50) is 8.25 µM.

On to `COc1ccc(/C=C/C(=O)c2cc(Br)ccc(=O)c2O)cc1`, for which the AC50 is 3.21 µM.

For `Clc1ccc(CSC(Cn2ccnc2)c2ccc(Cl)cc2Cl)cc1` (centres undefined), the AC50 was 0.576 µM.

Take `c1ccc(C(=NNc2nc3ccccc3s2)c2ccccn2)cc1`: the AC50 is 22.3 µM. Turning to `C[C@@]12C(=O)Nc3ccc(Cl)cc3C(=O)N1[C@H]1c3ccccc3OC[C@@H]1[C@@H]2c1ccccc1`, the AC50 was 0.487 µM.

The same experiment, now with this note: yeast expressing the parasite Hsp90, ATP luminescence, at 26 µM (top of the series).
Take `N/C(Cc1ccc(Cl)c(Cl)c1)=N\OC(=O)c1ccc(Br)o1`: the activity change, negative = inhibition is 66.7% (inactive). Consider `O=C(/C(=C\c1ccccc1)c1nc2ccccc2[nH]1)c1ccc(Cl)cc1`, for which the activity change, negative = inhibition was -31.8% (inactive).

Consider `Cc1ccc(-c2cc(-c3ccc(F)cc3)c(C#N)c(N)n2)o1`, for which the activity change, negative = inhibition is 19.7% (inactive).
